{
  "source": "patent US8709511B2",
  "about": "“External preparation composition for skin comprising ginseng flower or ginseng seed extracts” (Amorepacific Corporation, priority 2008, dated 2014)",
  "key": {"[1]": {"test_system": "human HaCaT keratinocyte monolayer culture system", "assay": "Inhibition of reactive oxygen species production after UVB (DCFH-DA fluorescence)", "assay_type": "cell-based", "procedure": "Antioxidative effect of the ginseng flower extract and the ginseng seed extract was investigated by comparing the capacity of removing reactive oxygen species (ROS) produced in cells in response to UV radiation. The positive control group for the ginseng flower extract was treated with vitamin C (Sigma Co.), which is commonly used to compare antioxidative effect. And, the control group was left untreated. A human HaCaT keratinocyte monolayer culture system (P. Boukamp, German Cancer Research Center, Heidelberg, Germany) was treated with UV (UVB 30 mJ/cm^2) and then with the extract prepared in Example 1 at 10 ppm, 50 ppm and 100 ppm. Then, 2′,7′-dichlorodihydrofluorescein diacetate (DCFH-DA; Molecular Probes, Inc.) was measured with a fluorescence plate reader. Production of ROS was calculated relative to the UV-untreated control group. The positive control group for the ginseng seed extract was treated with Trolox (Aldrich Co.), which is commonly used to compare antioxidative effect. And, the control group was left untreated. […] Then, DCFH-DA (Molecular Probes, Inc.) was measured with a fluorescence plate reader. Inhibition of ROS production was calculated relative to the UV-treated control group."}, "[2]": {"test_system": "matrix metalloproteinase 1 (MMP-1) in human fibroblasts", "assay": "Inhibition of UVB-induced MMP-1 expression (ELISA)", "assay_type": "cell-based", "conditions": "UVB 40 mJ/cm^2, 10 μM, 2 days; non-UV = 100, UV alone 152", "procedure": "Human fibroblasts were cultured in a 12-well culture plate at a concentration of 10^5 cells/well, and then irradiated with 40 mJ/cm ^2 of UVB. Then, the culture medium was replaced with media containing 1 ppm, 10 ppm and 50 ppm of the ginseng flower extract prepared in Example 1. At 2 days of culture, the cells were harvested, and the amount of produced matrix metalloproteinase 1 (MMP-1) was quantified using an ELISA method. The measurement results were calculated relative to 100 for the non-UV-irradiated control group not treated with the test material. The positive control group was treated with retinoic acid (RA, Sigma Co.)."}, "[3]": {"test_system": "C57BL/6 mouse melanocytes (Mel-Ab cells)", "assay": "Melanin synthesis inhibition using mouse melanocytes (Dooley's method)", "assay_type": "cell-based", "conditions": "72 h, 3 days", "procedure": "Mouse melanocytes were used to examine the melanin synthesis inhibitory effect of the ginseng flower extract prepared in Example 1, the ginseng seed oil prepared in Example 2 and the ginseng seed residue extract prepared in Example 3.\nFirst, C57BL/6 mouse melanocytes (Mel-Ab cells; Dooley, T. P. et al., Skin Pharmacol., 7, pp. 188-200) were cultured in Dulbecco's modified Eagle's medium (DMEM) containing 10% fetal bovine serum, 100 nM 2-O-tetradecanoylphorbol-13-acetate and 1 nM cholera toxin under the condition of 37° C. and 5% CO2 . The cultured Mel-Ab cells were detached with 0.25% trypsin-EDTA and cultured in a 24-well culture plate at a concentration of 10^5 cells/well. Then, from day 2 of culture, each of 10 ppm, 50 ppm and 100 ppm of the ginseng flower extract (Example 1), the ginseng seed oil (Example 2) and the ginseng seed residue extract (Example 3) was continuously added thereto and cultured for 3 days. The positive control group was treated with arbutin (Sigma Co.). Then, the culture media were removed, and the cells were washed with PBS and lysed with 1 N sodium hydroxide. The lysed cells were measured for absorbance at 400 nm, and then the inhibition of melanin production was calculated according to Equation 2. […] Melanin synthesis inhibition (%)=100−[(Absorbance of each test material/Absorbance of control)×100] […]"}, "[4]": {"test_system": "UVB-darkened human skin (upper arm)", "assay": "Whitening on human skin after UVB-induced darkening (colorimeter)", "assay_type": "in vivo", "conditions": "applied on UVB-irradiated upper arm for 10 weeks; vehicle 0.51 ± 0.13", "procedure": "In order to examine the whitening effect of the ginseng flower extract prepared in Example 1, the ginseng seed oil prepared in Example 2 and the ginseng seed residue extract prepared in Example 3 on human skin, the following test was carried out.\nFirst, for 12 healthy men, a 1.5-cm perforated opaque tape was attached to the upper arm portion of the subjects, and then the attached portion was irradiated with UVB at a dose of about 1.5-2 times the minimal erythemal dose of each subject to induce skin darkening.\nThe color of the skin was measured with the colorimeter CR2002 (Minolta, Japan) at 1-week intervals.\nThen, the difference in skin color (ΔL*) between the time point of initiation of application and the time point of completion of application of each test material was calculated according to Equation 3, and the calculation results are shown in Table 8. The whitening effect is evaluated by measuring the ΔL* value between the sample-applied portion and the control portion. […] L*=L* value at the time of completion of application−L* value at the time of initiation of application [Equation 3]"}, "[5]": {"test_system": "Human normal fibroblasts", "assay": "Inhibition of oxidative damage of DNA by single cell gel electrophoresis (comet assay), H2O2 challenge", "assay_type": "cell-based", "conditions": "10 ppm", "procedure": "Human normal fibroblasts were cultured for 24 hours and treated with varying concentrations of the ginseng flower extract prepared in Example 1, the ginseng seed oil prepared in Example 2, the ginseng seed residue extract prepared in Example 3 and vitamin E. After 12 hours, the cells were treated with the positive control H2O2 (final concentration: 10^−3 M), stained by electrophoresis, and then observed with a fluorescence microscope. The image analyzer Komet 3.1 (Kinetic Imaging, England) was used to analyze the tail length (μm) resulting from the digestion of DNA in each of 25 cells."}, "[6]": {"test_system": "type I procollagen in human fibroblasts", "assay": "Type I procollagen assay (ELISA)", "assay_type": "cell-based", "conditions": "10 ng/mL, 3 days; positive control set to 100", "procedure": "Human fibroblasts were cultured in a 12-well culture plate at a concentration of 10 ^5 cells/well, and then the medium was replaced with media containing 1 ppm, 10 ppm and 50 ppm of the ginseng flower extract prepared in Example 1 or with media containing 1 ppm and 10 ppm of the ginseng seed oil prepared in Example 2 or the ginseng seed residue extract prepared in Example 3, as shown in Table 4. At 3 days of culture, the cells were harvested, and the amount of the produced type I procollagen was quantified using an ELISA method. The measurement results were calculated relative to 0 for the control group containing neither the ginseng flower extract nor the ginseng seed extract and 100 for the positive control group (human transforming growth factor-β1 (TGF-β1, Roche Co.))."}},
  "data": [
    {"compound": "Cc1c(C)c2c(c(C)c1O)CCC(C)(C(=O)O)O2", "note": "(centres unmarked) [Trolox]", "values": [
      {"measurement": "Inhibition of ROS production (%)", "setting": "[1]; UVB 30 mJ/cm^2, 0.1 mM, relative to UV-treated control", "result": 42.7, "unit": "%"}
    ]},
    {"compound": "CC1=C(/C=C/C(C)=C/C=C/C(C)=C/C(=O)O)C(C)(C)CCC1", "note": "[RA, retinoic acid]", "values": [
      {"measurement": "MMP-1 biosynthesis (%)", "setting": "[2]", "result": 45, "unit": "%"}
    ]},
    {"compound": "OC[C@H]1O[C@@H](Oc2ccc(O)cc2)[C@H](O)[C@@H](O)[C@@H]1O", "note": "[Arbutin, arbutin]", "values": [
      {"measurement": "inhibition at 100 ppm", "setting": "[3]", "result": 51, "unit": "%"}
    ]},
    {"compound": "Oc1ccc(O)cc1", "note": "[Hydroquinone, hydroquinone]", "values": [
      {"measurement": "Skin color brightness (ΔL*)", "setting": "[4]", "result": "1.89 ± 0.15"}
    ]},
    {"compound": "vitamin E", "values": [
      {"measurement": "Tail length (μm)", "setting": "[5]; 12 h before H2O2 10^-3 M, control 112.4", "result": 68.9, "unit": "μm"},
      {"measurement": "Inhibition (%)", "setting": "[5]; inhibition of oxidative DNA damage (tail length) vs control", "result": 38.7, "unit": "%"}
    ]},
    {"compound": "TGF-β1: human transforming growth factor-β1 (Roche Co.), positive control", "values": [
      {"measurement": "Type I procollagen biosynthesis (%)", "setting": "[6]", "result": 100, "unit": "%"}
    ]},
    {"compound": "O=C1O[C@H]([C@@H](O)CO)C(O)=C1O", "note": "[vitamin C]", "values": [
      {"measurement": "ROS production (%)", "setting": "[1]; UVB 30 mJ/cm^2, 100 μM, relative to UV-untreated control = 100 (UVB alone 161)", "result": 72, "unit": "%"}
    ]}
  ]
}
